Test results from ChEMBL document CHEMBL1697781, “Assessment of the health effects of chemicals in humans: II. Construction of an adverse effects database for QSAR modeling” (Curr Drug Discov Technol, 2004).

Columns and labels:
Conditions in all cases: human; call rule not given here
Hepatotoxicity [1] = assay: FDA HLAED, serum glutamic pyruvic transaminase (SGPT) increase
Hepatotoxicity [2] = assay: FDA HLAED, alkaline phosphatase increase
Hepatotoxicity [3] = assay: FDA HLAED, liver enzyme composite activity
Hepatotoxicity [4] = assay: FDA HLAED, gamma-glutamyl transferase (GGT) increase
Hepatotoxicity [5] = assay: FDA HLAED, lactate dehydrogenase (LDH) increase
Hepatotoxicity [6] = assay: FDA HLAED, serum glutamic oxaloacetic transaminase (SGOT) increase
For GGT Increase - Index Value in this document: reference of the scale not given here.
For LDH Increase - Index Value in this document: reference of the scale not given here.

SMILES	SGPT Increase - Activity Score (Hepatotoxicity [1])	SGPT Increase - Index Value (Hepatotoxicity [1])	SGPT Increase - Number of Reports (Hepatotoxicity [1])	Alkaline Phosphatase Increase - Activity Score (Hepatotoxicity [2])	Alkaline Phosphatase Increase - Index Value (Hepatotoxicity [2])	Alkaline Phosphatase Increase - Number of Reports (Hepatotoxicity [2])	Composite Activity - Active (Hepatotoxicity [3])	Composite Activity - Marginal (Hepatotoxicity [3])	Composite Activity - Score (Hepatotoxicity [3])	GGT Increase - Activity Score (Hepatotoxicity [4])	GGT Increase - Index Value (Hepatotoxicity [4])	GGT Increase - Number of Reports (Hepatotoxicity [4])	LDH Increase - Activity Score (Hepatotoxicity [5])	LDH Increase - Index Value (Hepatotoxicity [5])	LDH Increase - Number of Reports (Hepatotoxicity [5])	SGOT Increase - Activity Score (Hepatotoxicity [6])	SGOT Increase - Index Value (Hepatotoxicity [6])	SGOT Increase - Number of Reports (Hepatotoxicity [6])	other results
CC[C@@]1(O)C(=O)OCc2c1cc1n(c2=O)Cc2cc3c(CN(C)C)c(O)ccc3nc2-1 [TOPOTECAN]	Inactive	0	< 4	Inactive	0	< 4	0	0	Inactive	Inactive	11.6	< 4	Inactive	11.6	< 4	Inactive	0	< 4	–
Cc1cccc(Nc2ccncc2S(=O)(=O)NC(=O)NC(C)C)c1 [TORSEMIDE]	Inactive	0.5	< 4	Inactive	0	< 4	0	0	Inactive	Inactive	0	< 4	Inactive	0	< 4	Inactive	0.5	< 4	–
COc1cccc(C2(O)CCCCC2CN(C)C)c1 (stereo unspecified) [TRAMADOL]	Inactive	0.8	>= 4	Inactive	0.1	< 4	0	0	Inactive	Inactive	0.2	< 4	Inactive	0.6	>= 4	Inactive	0.5	>= 4	–
CCOC(=O)[C@H](CCc1ccccc1)N[C@@H](C)C(=O)N1[C@H](C(=O)O)C[C@H]2CCCC[C@@H]21 [TRANDOLAPRIL]	Marginally Active	10.5	< 4	Inactive	0	< 4	1	0	Inactive	Inactive	0	< 4	Inactive	0	< 4	Inactive	7	< 4	–
O=c1n(CCCN2CCN(c3cccc(Cl)c3)CC2)nc2ccccn12 [TRAZODONE]	Inactive	0	< 4	Inactive	0.2	< 4	0	0	Inactive	Inactive	0	< 4	Inactive	0.3	< 4	Inactive	0.3	< 4	–
CC1=C(/C=C/C(C)=C/C=C/C(C)=C/C(=O)O)C(C)(C)CCC1 [TRETINOIN]	Inactive	0	< 4	Inactive	1	< 4	0	0	Inactive	Inactive	1	< 4	Inactive	1	< 4	Inactive	0	< 4	–
Cc1nnc2n1-c1ccc(Cl)cc1C(c1ccccc1Cl)=NC2 [TRIAZOLAM]	Inactive	0	< 4	Inactive	0.4	< 4	0	0	Inactive	Inactive	0	< 4	Inactive	0	< 4	Inactive	0.3	< 4	–
NCCNCCNCCN [TRIENTINE]	Inactive	69.4	< 4	Inactive	0	< 4	–	–	–	Inactive	0	< 4	Inactive	0	< 4	Inactive	69.4	< 4	Composite Activity - Active (Hepatotoxicity [3]; Liver): 0; Composite Activity - Marginal (Hepatotoxicity [3]; Liver): 0; Composite Activity - Score (Hepatotoxicity [3]; Liver): Inactive
O=c1[nH]c(=O)n([C@H]2C[C@H](O)[C@@H](CO)O2)cc1C(F)(F)F [TRIFLURIDINE]	Inactive	0	< 4	Inactive	0	< 4	0	0	Inactive	Inactive	0	< 4	Inactive	0	< 4	Inactive	0	< 4	–
CN1C(=O)OC(C)(C)C1=O [TRIMETHADIONE]	Marginally Active	No Shipping Units	>= 4	Active	No Shipping Units	>= 4	2	3	Active	Marginally Active	No Shipping Units	>= 4	Marginally Active	No Shipping Units	>= 4	Active	No Shipping Units	>= 4	–
COc1cc(NCc2ccc3nc(N)nc(N)c3c2C)cc(OC)c1OC [TRIMETREXATE]	Inactive	38.8	< 4	Inactive	38.8	< 4	1	0	Inactive	Inactive	0	< 4	Inactive	38.8	< 4	Active	77.5	< 4	–
CC(CN(C)C)CN1c2ccccc2CCc2ccccc21 (stereo unspecified) [TRIMIPRAMINE]	Inactive	0	< 4	Inactive	0	< 4	0	0	Inactive	Inactive	0	< 4	Inactive	0	< 4	Inactive	0	< 4	–
